Measured values taken from patent US5360809A, “Imidazole compounds and their use as calcium channel blockers” (NeuroSearch A/S, priority 1992, dated 1994).

These compounds were tested on voltage operated calcium channels (P- and L-type), rat synaptosomes (assay: 45Ca influx into rat synaptosomes under depolarized conditions). Conditions: depolarization induced 45Ca uptake, rat cortex synaptosomes.
Type: biochemical, rat (male Wistar)
Excerpt: A high influx of calcium from extracelluar compartments into neurons is seen after opening of voltage operated calcium channels. Such opening of calcium channels may be induced by depolarization of neuronal membranes. A crude synaptosome preparation contains small vesicles surrounded by neuronal membranes, and it is possible to study an opening of the voltage operated calcium channels in such a preparation. In the below described test influx of ^45 Ca into rat synaptosomes is studied under depolarized conditions. The effect of test substances on the depolarization induced calcium uptake can thus be studied.
The compounds of the present invention which potently block the calcium influx of up to 20 to 40% in this test are believed to be blockers of predominantly the P-type of calcium channels and the compounds of the present invention, which at somewhat higher concentrations block the calcium influx more completely or totally, are believed to be both P- and L-type calcium channel blockers, or predominantly L-type of calcium channel blockers.
The cerebral cortex from a male Wistar rat is homogenized in 20 ml ice cold 0.32M saccharose. In the following steps the temperature is kept at 0° C. to 4° C. The homogenate is centrifuged at 1,000×g for 10 minutes and the supernatant recentrifuged for 20 minutes at 18,000×g. The obtained pellet is resuspended in 0.32M saccharose (10 ml per g of original tissue). Aliquots of 0.05 ml of the hereby obtained synaptosome suspension are added to glass tubes containing 0.625 ml of a NaCl buffer (136 mM NaCl, 4 mM KCl, 0.35 mM CaCl2, 1.2 mM MgCl2, 20 mM Tris HCl, 12 mM glucose, pH 7.4) as well as 0.025 ml of different test substances in 48% ethanol. These tubes are pre-incubatedfor 30 minutes on ice and thereafter for 6 minutes at 37° C. ^45 Ca uptake is initiated by addition to above glass-tubes of 0.4 ml ^45 CACl2 (specific activity: 29-39 Ci/g; […]). […] The radioactivity on the filters are measured by liquid scintillation spectrometry. […]

| SMILES | IC50 |
| --- | --- |
| Nc1cccc(-c2cccc(-n3cnc4cc(C(F)(F)F)ccc43)c2)c1 [1-[3-(3-aminophenyl)-phenyl]-5-trifluoromethyl-benzimidazole] | 14 µM |
| FC(F)(F)c1ccc2c(c1)ncn2-c1cccc(-c2ccsc2)c1 [1-[3-(3-thienyl)phenyl-5-trifluoromethyl]-benzimidazole] | 3.4 µM |
| Fc1ccc2c(c1)ncn2-c1ccc(I)cc1 [1-(4-iodophenyl)-5-fluoro-benzimidazole] | 7 µM |
